In PubChem BioAssay (NCI):
“And” between values parts separate entries of the source, which are not always exact repeats. Equal entries are not always repeated.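 1) Cells in 96-well plates. 2) Compound, 48 h, 5 concentrations. 3) Linear interpolation between surrounding doses. 4) Unreached endpoint = highest concentration. Abbreviation: GI50, concentration required for 50% inhibition of growth. Definition used: TGI = concentration required for complete inhibition of growth.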

Experiments:
Assay in all cases: NCI tumour cell line growth inhibition, 48 h
[1] = tested on: SN12C renal
[2] = tested on: COLO 205 colon
[3] = tested on: SNB-75 CNS
[4] = tested on: DMS 273 small cell lung
[5] = tested on: HCC-2998 colon
[6] = tested on: KM20L2 colon
[7] = tested on: MDA-N
[8] = tested on: SNB-78 CNS
[9] = tested on: UACC-62 melanoma
[10] = tested on: NCI-H460 lung
[11] = tested on: UACC-257 melanoma
[12] = tested on: K-562 leukemia
[13] = tested on: LOX IMVI melanoma
[14] = tested on: OVCAR-3 ovarian
[15] = tested on: UO-31 renal
[16] = tested on: CCRF-CEM leukemia
[17] = tested on: DLD-1 colon
[18] = tested on: DU-145 prostate
[19] = tested on: NCI-H23 lung
[20] = tested on: OVCAR-4 ovarian
[21] = tested on: SNB-19 CNS
[22] = tested on: SK-MEL-5 melanoma
[23] = tested on: SR leukemia
[24] = tested on: NCI/ADR-RES ovarian
[25] = tested on: OVCAR-5 ovarian
[26] = tested on: CAKI-1 renal
[27] = tested on: MALME-3M melanoma
[28] = tested on: XF 498 CNS
[29] = tested on: SW-620 colon
[30] = tested on: TK-10 renal
[31] = tested on: SK-MEL-28 melanoma
[32] = tested on: M14 melanoma
[33] = tested on: A549 NSCLC
[34] = tested on: ACHN renal
[35] = tested on: NCI-H226 lung
[36] = tested on: MCF7 breast
[37] = tested on: U251 CNS
[38] = tested on: HOP-18 NSCLC
[39] = tested on: A498 renal
[40] = tested on: MDA-MB-435
[41] = tested on: SF-539 CNS
[42] = tested on: HS 578T breast
[43] = tested on: MOLT-4 leukemia
[44] = tested on: T-47D breast
[45] = tested on: HCT-15 colon
[46] = tested on: HL-60(TB) leukemia
[47] = tested on: SF-268 CNS
[48] = tested on: HT29 colon
[49] = tested on: DMS 114 small cell lung
[50] = tested on: OVCAR-8 ovarian
[51] = tested on: M19-MEL melanoma
[52] = tested on: 786-0 renal
[53] = tested on: EKVX NSCLC
[54] = tested on: NCI-H522 lung
[55] = tested on: SK-MEL-2 melanoma
[56] = tested on: HCT-116 colon
[57] = tested on: SF-295 CNS
[58] = tested on: HOP-92 NSCLC
[59] = tested on: RXF 393 renal
[60] = tested on: HOP-62 NSCLC
[61] = tested on: MDA-MB-231 breast
[62] = tested on: KM12 colon
[63] = tested on: RPMI-8226 leukemia
[64] = tested on: SK-OV-3 ovarian
[65] = tested on: IGROV1 ovarian
[66] = tested on: LXFL 529 NSCLC
[67] = tested on: RXF-631 renal

For `CSc1nc(C)c(Br)c(=O)n1C1OC(COC(C)=O)C(OC(C)=O)C(OC(C)=O)C1OC(C)=O` (stereo not drawn), the TGI [1] was over 100 µM, the TGI [2] was over 100 µM and the GI50 [3] was 10.5 µM and 26.5 µM. For the same compound, the TGI [3] was 51.8 µM and 65.1 µM, the TGI [4] was over 100 µM and the TGI [5] was over 100 µM. The TGI [6] was over 100 µM, the TGI [7] was over 100 µM and the GI50 [8] was 17 µM and 63.6 µM. For the same compound, the TGI [8] was 64.8 µM and > 100 µM, the GI50 [9] was 97 µM and 23.3 µM and the TGI [9] was > 100 µM and 44.1 µM. For the same compound, the TGI [10] was over 100 µM, the GI50 [11] was > 100 µM and 39 µM and the TGI [11] was over 100 µM. It also gave a TGI [12] of over 100 µM, a TGI [13] of over 100 µM and a TGI [14] of over 100 µM. For the same compound, the GI50 [15] was > 100 µM and 44.9 µM, the TGI [15] was over 100 µM and the TGI [16] was over 100 µM. The TGI [17] was over 100 µM, the TGI [18] was over 100 µM and the GI50 [19] was > 100 µM and 47 µM. For the same compound, the TGI [19] was over 100 µM, the GI50 [20] was > 100 µM and 20.5 µM and the TGI [20] was > 100 µM and 52.2 µM. For the same compound, the GI50 [21] was 51.8 µM, the TGI [21] was over 100 µM and the GI50 [22] was > 100 µM and 19.2 µM. The TGI [22] was > 100 µM and 50.7 µM, the TGI [23] was over 100 µM and the TGI [24] was over 100 µM. For the same compound, the TGI [25] was over 100 µM, the GI50 [26] was > 100 µM and 33.9 µM and the TGI [26] was > 100 µM and 83.9 µM. The GI50 [27] was > 100 µM and 33.4 µM, the TGI [27] was > 100 µM and 70.4 µM and the TGI [28] was 43.6 µM. The TGI [29] was over 100 µM, the GI50 [30] was 43.1 µM and 20.6 µM and the TGI [30] was > 100 µM and 55.9 µM. The GI50 [31] was > 100 µM and 21 µM, the TGI [31] was > 100 µM and 57 µM and the TGI [32] was over 100 µM. For the same compound, the GI50 [33] was > 100 µM and 28.5 µM, the TGI [33] was over 100 µM and the GI50 [34] was > 100 µM and 35.4 µM. The TGI [34] was over 100 µM, the GI50 [35] was > 100 µM and 36 µM and the TGI [35] was over 100 µM. The TGI [36] was over 100 µM, the TGI [37] was > 100 µM and 49.3 µM and the TGI [38] was over 100 µM. The GI50 [39] was 29.4 µM and 75.4 µM, the TGI [39] was over 100 µM and the TGI [40] was over 100 µM. The GI50 [41] was > 52.8 µM and 18.6 µM, the TGI [41] was > 80.2 µM and 34.4 µM and the TGI [42] was over 100 µM. It also gave a TGI [43] of over 100 µM, a TGI [44] of over 100 µM and a TGI [45] of over 100 µM. For the same compound, the TGI [46] was over 100 µM, the TGI [47] was > 100 µM and 44.2 µM and the TGI [48] was over 100 µM. The GI50 [49] was > 100 µM and 25.5 µM, the TGI [49] was > 100 µM and 81 µM and the GI50 [50] was > 100 µM and 36 µM. The TGI [50] was over 100 µM, the GI50 [51] was > 100 µM and 44.6 µM and the TGI [51] was over 100 µM. The GI50 [52] was 74 µM and 26.3 µM, the TGI [52] was > 100 µM and 48.5 µM and the GI50 [53] was > 100 µM and 42.9 µM. The TGI [53] was over 100 µM, the GI50 [54] was > 100 µM and 30.9 µM and the TGI [54] was over 100 µM. For the same compound, the TGI [55] was over 100 µM, the GI50 [56] was > 88.4 µM and 35 µM and the TGI [56] was over 100 µM. For the same compound, the TGI [57] was 79.7 µM and 70.8 µM, the TGI [58] was 54.8 µM and 58.1 µM and the TGI [59] was 49.2 µM and 40.7 µM. The TGI [60] was 72.3 µM and 43.9 µM, the TGI [61] was over 100 µM and the TGI [62] was over 100 µM. The TGI [63] was over 100 µM, the GI50 [64] was > 91.7 µM and 42.3 µM and the TGI [64] was over 100 µM. For the same compound, the GI50 [65] was > 100 µM and 27.4 µM, the TGI [65] was > 100 µM and 71.5 µM and the GI50 [66] was > 100 µM and 32.1 µM. The TGI [66] was > 100 µM and 76.4 µM.
With `O=C1OC(c2ccccc2)=N/C1=C\c1cc(Cl)ccc1Cl` the TGI [1] was over 100 µM, the TGI [2] was over 100 µM and the TGI [3] was 36.3 µM. It also gave a TGI [5] of over 100 µM, a TGI [6] of over 100 µM and a TGI [8] of over 100 µM. It also gave a TGI [9] of over 100 µM, a TGI [10] of over 100 µM and a TGI [11] of over 100 µM. For the same compound, the TGI [12] was over 100 µM, the TGI [15] was over 100 µM and the TGI [16] was 66.8 µM. It also gave a TGI [17] of over 100 µM, a TGI [19] of over 100 µM and a TGI [20] of over 100 µM. The TGI [21] was over 100 µM, the TGI [22] was over 100 µM and the TGI [25] was over 100 µM. It also gave a TGI [27] of over 100 µM, a TGI [29] of over 100 µM and a TGI [31] of over 100 µM. The TGI [32] was over 100 µM, the TGI [33] was over 100 µM and the TGI [34] was over 100 µM. It also gave a TGI [37] of over 100 µM, a TGI [38] of over 100 µM and a TGI [39] of over 100 µM. It also gave a TGI [41] of over 100 µM, a TGI [43] of 53.7 µM and a TGI [67] of over 100 µM. It also gave a TGI [45] of 82.9 µM, a TGI [46] of 35.3 µM and a TGI [47] of over 100 µM. The TGI [48] was over 100 µM, the TGI [49] was over 100 µM and the TGI [51] was over 100 µM. It also gave a TGI [52] of over 100 µM, a TGI [53] of over 100 µM and a TGI [54] of over 100 µM. It also gave a TGI [55] of over 100 µM, a TGI [56] of over 100 µM and a TGI [57] of over 100 µM. It also gave a TGI [58] of over 100 µM, a TGI [59] of over 100 µM and a TGI [60] of over 100 µM. The TGI [62] was over 100 µM, the TGI [63] was over 100 µM and the TGI [65] was over 100 µM. It also gave a TGI [66] of 86 µM.
